# Experimental data reported in ChEMBL document CHEMBL1128680, “6-substituted 2,4-diamino-5-methylpyrido[2,3-d]pyrimidines as inhibitors of dihydrofolate reductases from Pneumocystis carinii and Toxoplasma gondii and as antitumor agents” (J Med Chem, 1995).
# Tests used:
# [1] = molecular target: T1, Dihydrofolate reductase (Pneumocystis carinii, UniProt P16184)
# T1 sequence (P16184 whole entry): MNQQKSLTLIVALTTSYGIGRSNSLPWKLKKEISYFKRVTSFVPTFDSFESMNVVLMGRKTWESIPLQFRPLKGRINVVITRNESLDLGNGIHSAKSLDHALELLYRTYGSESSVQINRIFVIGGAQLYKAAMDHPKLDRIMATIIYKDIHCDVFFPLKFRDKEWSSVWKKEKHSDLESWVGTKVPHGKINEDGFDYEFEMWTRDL
# Description: Inhibitory activity against Dihydrofolate reductase from Pneumocystis carinii
# [2] = molecular target: T2, Bifunctional dihydrofolate reductase-thymidylate synthase (Toxoplasma gondii, UniProt Q07422)
# T2 sequence (Q07422 whole entry): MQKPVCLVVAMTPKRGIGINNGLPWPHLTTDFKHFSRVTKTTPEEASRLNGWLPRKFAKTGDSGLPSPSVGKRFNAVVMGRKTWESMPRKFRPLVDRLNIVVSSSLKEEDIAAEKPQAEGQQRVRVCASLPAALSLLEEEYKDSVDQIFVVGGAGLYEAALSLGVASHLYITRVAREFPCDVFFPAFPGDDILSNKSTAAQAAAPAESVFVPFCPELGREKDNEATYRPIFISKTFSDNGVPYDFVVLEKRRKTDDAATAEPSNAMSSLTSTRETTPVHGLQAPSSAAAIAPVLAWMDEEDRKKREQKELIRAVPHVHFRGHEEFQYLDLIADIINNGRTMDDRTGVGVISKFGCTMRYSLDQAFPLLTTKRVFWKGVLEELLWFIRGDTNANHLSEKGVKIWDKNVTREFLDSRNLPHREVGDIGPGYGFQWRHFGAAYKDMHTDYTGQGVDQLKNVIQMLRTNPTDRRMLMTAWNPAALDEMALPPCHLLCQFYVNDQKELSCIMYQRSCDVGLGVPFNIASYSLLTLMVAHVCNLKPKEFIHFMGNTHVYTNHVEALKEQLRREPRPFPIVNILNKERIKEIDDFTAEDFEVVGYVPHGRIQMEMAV
# Description: Inhibitory activity against Dihydrofolate reductase from Toxoplasma gondii
# [3] = tested on: Toxoplasma gondii; test: Inhibitory activity against cultured Toxoplasma gondii; format: functional, organism-based
# [4] = Ratio of the inhibitory concentrations against Toxoplasma gondii […] and Toxoplasma gondii DHFR.
# [5] = molecular target: T3, Dihydrofolate reductase (Rattus norvegicus, UniProt Q920D2)
# T3 sequence (Q920D2 whole entry): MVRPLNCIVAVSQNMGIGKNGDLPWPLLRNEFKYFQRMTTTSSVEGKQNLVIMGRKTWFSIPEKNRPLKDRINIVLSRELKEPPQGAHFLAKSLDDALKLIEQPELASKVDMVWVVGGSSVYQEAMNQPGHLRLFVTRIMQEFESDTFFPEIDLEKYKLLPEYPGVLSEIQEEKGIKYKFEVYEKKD
# Description: Inhibitory activity against Dihydrofolate reductase from rat liver
# [6] = tested on: MOLT-4; test: Cytotoxic activity against MOLT-4 Leukemia cell line; format: functional; details: Homo sapiens
# [7] = tested on: A549; test: Cytotoxic activity against A549/ATCC non-small cell-lung cancer cell line; format: functional; details: Homo sapiens
# [8] = tested on: HT-29; test: Cytotoxic activity against HT-29 colon cancer cell line; format: functional; details: Homo sapiens
# [9] = tested on: U-251; test: Cytotoxic activity against U251 CNS cancer cell line; format: functional; details: Homo sapiens
# [10] = tested on: NCI-H460; test: Cytotoxic activity against NCI-H460 non-small cell-lung cancer cell line; format: functional; details: Homo sapiens
# [11] = tested on: SF-295; test: Cytotoxic activity against SF-295 CNS cancer cell line; format: functional; details: Homo sapiens
# [12] = tested on: LOX IMVI; test: Cytotoxic activity against LOXIMVI Melanoma cell line; format: functional; details: Homo sapiens
# [13] = tested on: SW-620; test: Cytotoxic activity against SW-620 colon cancer cell line; format: functional; details: Homo sapiens
# [14] = tested on: MDA-MB-435; test: Cytotoxic activity against MDA-MB-435 Breast cancer cell line; format: functional; details: Homo sapiens
# [15] = tested on: UACC-257; test: Cytotoxic activity against UACC-257 Melanoma cell line; format: functional; details: Homo sapiens
# [16] = tested on: K562; test: Cytotoxic activity against K-562 Leukemia cell line; format: functional; details: Homo sapiens
# [17] = tested on: SF-268; test: Cytotoxic activity against SF-268 CNS canser cell line; format: functional; details: Homo sapiens
# [18] = tested on: UACC-62; test: Cytotoxic activity against UACC-62 Melanoma cell line; format: functional; details: Homo sapiens
# [19] = tested on: MDA-MB-231; test: Cytotoxic activity against MDA-MB-231/ATCC Breast cancer cell line; format: functional; details: Homo sapiens
# [20] = tested on: SR; test: Cytotoxic activity against SR Leukemia cell line; format: functional; details: Homo sapiens
# [21] = tested on: MDA-N; test: Cytotoxic activity against MDA-N Breast cancer cell line; format: functional; details: Homo sapiens
# [22] = tested on: PC-3; test: Cytotoxic activity against PC-3 Prostate cancer cell line; format: functional; details: Homo sapiens
# [23] = tested on: HCT-116; test: Cytotoxic activity against HCT116 colon cancer cell line; format: functional; details: Homo sapiens
# [24] = tested on: SK-MEL-5; test: Cytotoxic activity against SK-MEL-5 Melanoma cell line; format: functional; details: Homo sapiens
# [25] = tested on: 786-0; test: Cytotoxic activity against 786-0 Renal cancer cell line; format: functional; details: Homo sapiens
# [26] = tested on: HCT-15; test: Cytotoxic activity against HCT-15 colon cancer cell line; format: functional; details: Homo sapiens
# [27] = tested on: NCI-H322M; test: Cytotoxic activity against NCI-H322M non-small cell-lung cancer cell line; format: functional; details: Homo sapiens
# [28] = tested on: DU-145; test: Cytotoxic activity against DU-145 Prostate cancer cell line; format: functional; details: Homo sapiens
# [29] = tested on: CCRF-CEM; test: Cytotoxic activity against CCRF-CEM Leukemia cell line; format: functional; details: Homo sapiens
# [30] = tested on: ACHN; test: Cytotoxic activity against ACHN Renal cancer cell line; format: functional; details: Homo sapiens
# [31] = (§1) Cytotoxic activity against IGROV1 Ovarian cancer cell line; format: functional; details: Homo sapiens, IGROV-1
# [32] = molecular target: Dihydrofolate reductase (Lactobacillus casei, UniProt P00381)
# Description: Inhibitory activity against Dihydrofolate reductase from Lactobacillus casei
# [33] = tested on: IGROV-1; test: as §1; format: functional; details: Homo sapiens
# [34] = tested on: MDA-N; test: Cytotoxic activity against MDA-N breast cancer cell line; format: functional; details: Homo sapiens
# Dihydrofolate reductase (Lactobacillus casei, UniProt P00381), sequence (P00381 whole entry): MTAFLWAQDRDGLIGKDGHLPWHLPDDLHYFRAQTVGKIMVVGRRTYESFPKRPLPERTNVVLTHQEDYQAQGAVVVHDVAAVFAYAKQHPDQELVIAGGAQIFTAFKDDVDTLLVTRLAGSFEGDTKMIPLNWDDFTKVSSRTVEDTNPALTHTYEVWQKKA
smiles,measurement,setting,value
CCOc1ccc(OCC)c(NCc2cnc3nc(N)nc(N)c3c2C)c1,IC50,[1],76.7 nM
same,IC50,[2],17 nM
same,IC50,[3],320 nM
same,Ratio,[4],19
same,IC50,[5],17.4 nM
COc1cc(NCc2cnc3nc(N)nc(N)c3c2C)cc(OC)c1,IC50,[1],22.9 nM
same,IC50,[2],4.8 nM
same,IC50,[3],600 nM
same,Ratio,[4],125
same,IC50,[5],42.5 nM
COc1ccc(NCc2cnc3nc(N)nc(N)c3c2C)c2ccccc12,IC50,[1],41 nM
same,GI50,[6],91.1 nM
same,GI50,[7],38.4 nM
same,GI50,[8],72.3 nM
same,GI50,[9],72.9 nM
same,GI50,[10],49.1 nM
same,GI50,[11],83.2 nM
same,GI50,[12],69.4 nM
same,GI50,[13],79.6 nM
same,GI50,[14],62.1 nM
same,IC50,[2],23 nM
same,GI50,[15],86.8 nM
same,GI50,[16],16.1 nM
same,GI50,[17],60.4 nM
same,GI50,[18],43.2 nM
same,GI50,[19],18.8 nM
same,GI50,[20],76 nM
same,GI50,[21],42.5 nM
same,GI50,[22],79.8 nM
same,GI50,[23],11.7 nM
same,GI50,[24],57.8 nM
same,IC50,[3],40 nM
same,GI50,[25],55 nM
same,GI50,[26],45.6 nM
same,GI50,[27],85 nM
same,Ratio,[4],2
same,GI50,[28],52.1 nM
same,IC50,[5],54 nM
same,GI50,[29],76.6 nM
same,GI50,[30],47.9 nM
same,GI50,[31],86.8 nM
C#CCN(Cc1cnc2nc(N)nc(N)c2c1C)c1cc(OC)c(OC)c(OC)c1,IC50,[1],53.5 nM
same,IC50,[2],7.7 nM
same,IC50,[5],11.8 nM
CCN(Cc1cnc2nc(N)nc(N)c2c1C)c1cc(OC)c(OC)c(OC)c1,IC50,[1],49.7 nM
same,IC50,[2],7.7 nM
same,IC50,[5],10.5 nM
COc1ccc(NCc2cnc3nc(N)nc(N)c3c2C)cc1OC,IC50,[1],44 nM
same,IC50,[2],8.8 nM
same,IC50,[32],83 nM
same,IC50,[5],7.6 nM
CCOc1ccc(OCC)c(N(C)Cc2cnc3nc(N)nc(N)c3c2C)c1,IC50,[1],3100 nM
same,IC50,[2],100 nM
same,IC50,[5],3000 nM
COc1cc(OC)cc(N(C)Cc2cnc3nc(N)nc(N)c3c2C)c1,IC50,[1],130 nM
same,GI50,[6],742 nM
same,GI50,[7],442 nM
same,GI50,[8],5840 nM
same,GI50,[9],529 nM
same,GI50,[10],544 nM
same,GI50,[11],5150 nM
same,GI50,[12],1990 nM
same,GI50,[13],5500 nM
same,GI50,[14],6930 nM
same,IC50,[2],58 nM
same,GI50,[15],620 nM
same,GI50,[16],209 nM
same,GI50,[17],717 nM
same,GI50,[18],628 nM
same,GI50,[19],9220 nM
same,GI50,[20],541 nM
same,GI50,[21],527 nM
same,GI50,[22],594 nM
same,GI50,[23],410 nM
same,GI50,[24],596 nM
same,GI50,[25],630 nM
same,GI50,[26],2120 nM
same,GI50,[28],4360 nM
same,IC50,[5],170 nM
same,GI50,[29],536 nM
same,GI50,[30],816 nM
same,GI50,[33],956 nM
Cc1c(CNc2cccc3ccccc23)cnc2nc(N)nc(N)c12,IC50,[1],573 nM
same,IC50,[2],14.5 nM
same,IC50,[3],100 nM
same,Ratio,[4],7
same,IC50,[5],29.6 nM
COc1ccc(OC)c(N(C)Cc2cnc3nc(N)nc(N)c3c2C)c1,IC50,[1],216 nM
same,GI50,[6],3160 nM
same,GI50,[7],732 nM
same,GI50,[8],3220 nM
same,GI50,[9],4210 nM
same,GI50,[11],3410 nM
same,GI50,[12],5820 nM
same,GI50,[13],5040 nM
same,GI50,[14],4180 nM
same,IC50,[2],30.1 nM
same,GI50,[15],20000 nM
same,GI50,[16],499 nM
same,GI50,[17],5910 nM
same,GI50,[18],1150 nM
same,GI50,[19],764 nM
same,GI50,[20],7450 nM
same,GI50,[21],6620 nM
same,GI50,[22],783 nM
same,GI50,[23],3970 nM
same,GI50,[24],1560 nM
same,IC50,[3],1050 nM
same,GI50,[25],843 nM
same,GI50,[26],2540 nM
same,GI50,[27],5560 nM
same,Ratio,[4],35
same,GI50,[28],2710 nM
same,IC50,[5],407 nM
same,GI50,[29],7150 nM
same,GI50,[30],3750 nM
same,GI50,[33],5450 nM
COc1cc(N(Cc2cnc3nc(N)nc(N)c3c2C)C(C)C)cc(OC)c1OC,IC50,[1],13.4 nM
same,IC50,[2],6.7 nM
same,IC50,[32],210 nM
same,IC50,[5],17.5 nM
COc1cc(N(C)Cc2cnc3nc(N)nc(N)c3c2C)cc(OC)c1OC,IC50,[3],4700 nM
COc1ccc(N(C)Cc2cnc3nc(N)nc(N)c3c2C)cc1OC,IC50,[1],320 nM
same,IC50,[2],29 nM
same,IC50,[5],44 nM
COc1ccc(N(C)Cc2cnc3nc(N)nc(N)c3c2C)c(OC)c1,IC50,[1],510 nM
same,IC50,[2],38 nM
same,IC50,[3],1730 nM
same,Ratio,[4],46
same,IC50,[5],330 nM
COc1cc(NCc2ccc3nc(N)nc(N)c3c2C)cc(OC)c1OC [TRIMETREXATE],IC50,[32],27 nM
COc1ccc(OC)c(NCc2cnc3nc(N)nc(N)c3c2C)c1,IC50,[1],46 nM
same,IC50,[2],16 nM
same,IC50,[32],39 nM
same,IC50,[3],1500 nM
same,Ratio,[4],94
same,IC50,[5],128 nM
COc1ccc(NCc2cnc3nc(N)nc(N)c3c2C)c(OC)c1,IC50,[1],316 nM
same,GI50,[6],1220 nM
same,GI50,[7],635 nM
same,GI50,[8],2380 nM
same,GI50,[9],5810 nM
same,GI50,[10],481 nM
same,GI50,[11],1610 nM
same,GI50,[12],3350 nM
same,GI50,[34],359 nM
same,GI50,[14],3530 nM
same,IC50,[2],56.5 nM
same,GI50,[15],100000 nM
same,GI50,[16],305 nM
same,GI50,[17],4170 nM
same,GI50,[18],126000 nM
same,GI50,[19],1910 nM
same,GI50,[20],3530 nM
same,GI50,[22],852 nM
same,GI50,[23],173 nM
same,GI50,[24],1150 nM
same,GI50,[25],588 nM
same,GI50,[26],2200 nM
same,GI50,[27],50600 nM
same,GI50,[28],2830 nM
same,IC50,[5],214 nM
same,GI50,[29],4290 nM
same,GI50,[30],2890 nM
same,GI50,[33],6270 nM
